Assay [1] addresses T1, Human GPR120 short form (Homo sapiens, UniProt Q5NUL3).
T1 construct: expressed in transfected cells
T1 sequence (Q5NUL3 1-361): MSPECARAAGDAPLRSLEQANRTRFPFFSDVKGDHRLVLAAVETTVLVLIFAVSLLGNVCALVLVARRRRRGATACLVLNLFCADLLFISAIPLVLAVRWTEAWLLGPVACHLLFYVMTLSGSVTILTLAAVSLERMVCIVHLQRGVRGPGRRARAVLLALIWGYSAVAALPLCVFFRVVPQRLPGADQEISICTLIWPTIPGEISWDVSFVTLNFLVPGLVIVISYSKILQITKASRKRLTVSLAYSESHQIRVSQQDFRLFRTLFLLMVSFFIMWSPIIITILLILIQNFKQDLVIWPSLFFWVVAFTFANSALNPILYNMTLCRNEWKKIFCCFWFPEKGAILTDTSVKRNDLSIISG
Briefly: Human GPR120 calcium flux assay, Procedure Calcium B (4200 cells/well). Format: cell-based. On the procedure: Human GPR120 in Calcium Flux Assay
These cells are first loaded with the Ca^+2 sensitive dye, Fluo-4 NW. Upon stimulation, intracellular released Ca^+2 can bind to the dye and alter its fluorescence intensity. This increase in fluorescence signal, and thus the flux in intracellular [Ca^2+], is detected and quantitated by fluorescence imaging using a FLIPR reader. The effect of the agonist is measured as a function of concentration and used to calculate an EC50 based upon a response curve.
In this procedure 4200 cells/well were employed.
A Human GPR120 clone (Genbank accession number NM_001195755.1) was placed into the pcDNA3.1 mammalian expression vector carrying the neomycin resistance gene. A stable mammalian cell was generated by placing the above clone into a HEK293 background. […] Cells were split 2 times a week to keep the cells in the log-phase growth. […]
The assay was performed on a FLIPR plate reader using the following parameters. Baseline was read for 10 seconds at 1 sec intervals. The program was set to transfer 10 μL of ligand from compound plate to cell plate after baseline reading. Aspiration was executed at: 10 μL/sec speed, 4.6 μL height, Dispensing was executed at: 30 μL/sec speed, 45 μL height. After compound addition, each well was read for 300 sec, with measurements collected at 1 sec intervals.
The kinetic data from the FLIPR was based upon a 5 minute window for data collection. The fluorescence of each sample well was used for individual calculations of a normalized RFU value, which was defined as maximum response minus the minimum response. The normalized fluorescence reading (RFU) was calculated as follows: RFU=Fmax−Fmin
The Fitting Equation was: Y=Bottom+(Top-Bottom)/(1+10^((Log EC50−X)*HillSlope)), where X is the log of the concentration and Y is the response.
In general terms: Calcium assays in cells follow changes in intracellular calcium, usually with a dye or a luminescent sensor.

Assay [2] deals with T2, human GPR40 (Homo sapiens, UniProt O14842).
T2 construct: expressed in transfected cells
As to the kind of experiment: GPR40 calcium flux assay, human GPR40. Type of assay: cell-based. The conditions noted are these: HEK293 cells stably expressing GPR40; table does not say human or rat. On the procedure: Compounds were tested in a calcium flux assay using transfected HEK293 cells stably expressing either human GPR40 or rat GPR40. Human GPR40 expressing cells were cultured in DMEM−High Glucose media supplemented with 10% fetal bovine serum, 1×L-Glutamine, 1×Penicillin/Streptomycin and 500 μg/mL G418. Rat GPR40 expressing cells were cultured in DMEM−High Glucose media supplemented with 10% fetal bovine serum and 1 μg/mL puromycin. Cells were plated into poly-D-lysine coated 384-well plates and cultured overnight in a 37° C. humidified tissue culture incubator under 5% CO2/[…] atmosphere.
On the day of the experiment, the culture media was replaced with assay buffer (HBSS, 20 mM HEPES, 0.1% BSA) and the cells incubated at 37° C. for 1 h. Calcium-sensitive fluorescent dye (Fluo 8 No-Wash Calcium Dye, ABD Bioquest) was then added and the cells incubated for another 30 min at 37° C. followed by 15 min at room temperature while protected from the light. The cell plate and a plate of diluted compounds of Formula (I) were loaded into a fluorescent plate reader that added compounds onto the cells while measuring the fluorescence intensity of each well. The plate reader recorded fluorescence intensity at 1 second intervals for 8 min and provided the data for analysis in an Excel format. EC50 values were calculated using Prism (GraphPad) software.

Data on 26 molecules can be found in patent publication US11230526B1, “Cylcoalkenyl derivatives useful as agonists of the GPR120 and/or GPR40 receptors” (Janssen Pharmaceutica NV, priority 2018, dated 2022).

T2 sequence (O14842 whole entry): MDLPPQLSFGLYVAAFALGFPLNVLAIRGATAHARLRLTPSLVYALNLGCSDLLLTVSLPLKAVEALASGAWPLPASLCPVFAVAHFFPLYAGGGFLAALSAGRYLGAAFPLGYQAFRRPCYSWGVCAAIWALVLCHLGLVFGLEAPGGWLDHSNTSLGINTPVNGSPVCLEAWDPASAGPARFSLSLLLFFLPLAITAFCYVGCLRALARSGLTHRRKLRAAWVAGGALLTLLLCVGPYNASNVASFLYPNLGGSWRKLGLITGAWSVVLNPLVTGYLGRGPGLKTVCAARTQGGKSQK

Regarding `CCC1CCC(COc2ccc(CCC(=O)O)c(C)c2C)=C1c1ccc(Cl)cc1` (stereo not drawn) [Compound 6, 3-[4-[[2-(4-chlorophenyl)-3-ethyl-cyclopenten-1-yl]methoxy]-2,3-dimethyl-phenyl]Propanoic Acid], the EC50 in assay [1] was above 5000 nM; in assay [2], above 5 µM.

With `Cc1c(CCC(=O)O)ccc(OCC2=C(c3ccc(Cl)cc3)C(C(C)C)CC2)c1C` (stereo not drawn) [Compound 46, 3-[4-[[2-(4-chlorophenyl)-3-isopropyl-cyclopenten-1-yl]methoxy]-2,3-dimethyl-phenyl]Propanoic Acid], the concentration for a half-maximal effect (EC50) in assay [1] was above 5000 nM; in assay [2], above 5 µM.

In the case of `O=C(O)CCc1ccc(OCC2=C(c3ccc(Cl)cc3)CCC2)cc1C(F)(F)C(F)(F)F` [Compound 89, 3-[4-[[2-(4-chlorophenyl)cyclopenten-1-yl]methoxy]-2-(1,1,2,2,2-pentafluoroethyl)phenyl]Propanoic Acid], the EC50 in assay [1] stood at 1410 nM.

As for `O=C(O)CCc1cc(F)c(OCC2=C(c3ccc(Cl)cc3)CCC2)cc1C(F)(F)F` [Compound 91, 3-[4-[[2-(4-chlorophenyl)cyclopenten-1-yl]methoxy]-5-fluoro-2-(trifluoromethyl)phenyl]Propanoic Acid], the EC50 in assay [1] is above 5000 nM; in assay [2], above 5 µM.

Turning to `Cc1cc(CCC(=O)O)c(C(F)(F)F)cc1OCC1=C(c2ccc(Cl)cc2)CCC1` [Compound 98, 3-[4-[[2-(4-chlorophenyl)cyclopenten-1-yl]methoxy]-5-methyl-2-(trifluoromethyl)phenyl]Propanoic Acid], the EC50 in assay [1] was 2030 nM; in assay [2], above 5 µM.

As to `O=C(O)CCc1cc(Br)c(OCC2=C(c3ccc(Cl)cc3)CCC2)c(Br)c1C(F)(F)F` [Compound 101, 3-[3,5-dibromo-4-[[2-(4-chlorophenyl)cyclopenten-1-yl]methoxy]-2-(trifluoromethyl)phenyl]Propanoic Acid], the EC50 is 1230 nM in assay [1] and above 5 µM in assay [2].

`O=C(O)CCc1ccc(OCC2=C(c3ccc(F)c(F)c3)CCC2)cc1` [Compound 103]: the EC50 is above 5000 nM in assay [1] and above 5 µM in assay [2].

As for `O=C(O)CCc1ccc(OCC2=C(c3ccc(Cl)cc3)CCC2)cc1` [Compound 107], the figures for the EC50 in assay [1] and in assay [2] were above 5000 nM and above 5 µM, respectively.

In the case of `CCc1cc(CCC(=O)O)c(C(F)(F)F)cc1OCC1=C(c2ccc(Cl)cc2)CCC1` [Compound 142, 3-[4-[[2-(4-chlorophenyl)cyclopenten-1-yl]methoxy]-5-ethyl-2-(trifluoromethyl)phenyl]Propanoic Acid], in assay [2], the EC50 was above 5 µM.

As to `CC(Cc1cc(F)c(OCC2=C(c3ccc(Cl)cc3)CCC2)c(F)c1)C(=O)O` (stereo not drawn) [Compound 144, 3-[4-[[2-(4-chlorophenyl)cyclopenten-1-yl]methoxy]-3,5-difluoro-phenyl]-2-methyl-Propanoic Acid], the EC50 in assay [2] is above 5 µM.

With `Cc1c(CCC(=O)O)ccc(OCC2=C(c3ccc(Cl)cc3)CCC2=O)c1C` [Compound 145, 3-[4-[[2-(4-chlorophenyl)-5-oxo-cyclopenten-1-yl]methoxy]-2,3-dimethyl-phenyl]Propanoic Acid], the EC50 in assay [1] is 2000 nM; in assay [2], above 5 µM.

For `CC(C)(C)c1cc(OCC2=C(c3ccc(Cl)cc3)CCC2)ccc1CCC(=O)O` [Compound 168, 3-[2-tert-butyl-4-[[2-(4-chlorophenyl)cyclopenten-1-yl]methoxy]phenyl]Propanoic Acid], in assay [1], the EC50 is above 5000 nM.

On to `CS(=O)(=O)CCCCc1cc(CCC(=O)O)ccc1OCC1=C(c2ccc(Cl)cc2)CCC1` [Compound 181, 3-[4-[[2-(4-chlorophenyl)cyclopenten-1-yl]methoxy]-3-(4-methylsulfonylbutyl)phenyl]Propanoic Acid], for which, in assay [1], the EC50 was above 5000 nM.

Turning to `CSCCCCc1cc(CCC(=O)O)ccc1OCC1=C(c2ccc(Cl)cc2)CCC1` [Compound 198, 3-[4-[[2-(4-chlorophenyl)cyclopenten-1-yl]methoxy]-3-(4-methylsulfanylbutyl)phenyl]Propanoic Acid], the EC50 was determined as 1290 nM in assay [1] and 2.14 µM in assay [2].

For the molecule `O=C(O)CCc1cc(Cl)c(OCC2=C(c3ccc(F)cc3)CC(F)(F)C2)c(Cl)c1` [Compound 205, 3-[3,5-dichloro-4-[[4,4-difluoro-2-(4-fluorophenyl)cyclopenten-1-yl]methoxy]phenyl]Propanoic Acid], the figures for the EC50 in assay [1] and in assay [2] were 465 nM and above 5 µM, respectively.

On to `O=C(O)CCc1ccc(OCC2=C(c3ccc(Cl)cc3)CC(F)C2)cc1Cl` (stereo not drawn) [Compound 252, 3-[2-chloro-4-[[2-(4-chlorophenyl)-4-fluoro-cyclopenten-1-yl]methoxy]phenyl]Propanoic Acid], for which, in assay [1], the EC50 worked out at 265 nM.

Take `Cc1cc(OCC2=C(c3cccc(F)c3)CCC2)c(F)cc1CCC(=O)O` [Compound 305, 3-[5-fluoro-4-[[2-(3-fluorophenyl)cyclopenten-1-yl]methoxy]-2-methyl-phenyl]Propanoic Acid]: the EC50 in assay [1] turned out to be 378 nM.

For `Cc1cccc(C2=C(COc3cc(C)c(CCC(=O)O)cc3F)CCC2)c1` [Compound 318, 3-[5-fluoro-2-methyl-4-[[2-(m-tolyl)cyclopenten-1-yl]methoxy]phenyl]Propanoic Acid], the EC50 in assay [1] came out at 957 nM.

As for `N#Cc1cc(OCC2=C(C3CCCC3)CCC2)ccc1CCC(=O)O` [Compound 414, 3-[2-cyano-4-[(2-cyclopentylcyclopenten-1-yl)methoxy]phenyl]Propanoic Acid], in assay [1], the EC50 turned out to be 2580 nM.

In the case of `O=C(O)CCc1ccc(OCC2=C(CC3CCCC3)CCC2)cc1C(F)(F)F` [Compound 420, 3-[4-[[2-(cyclopentylmethyl)cyclopenten-1-yl]methoxy]-2-(trifluoromethyl)phenyl]Propanoic Acid], in assay [1], the EC50 worked out at 1190 nM.

With `Cc1c(CCC(=O)O)ccc(OCC2=C(CC3CCCC3)CCC2)c1C` [Compound 427, 3-[4-[[2-(cyclopentylmethyl)cyclopenten-1-yl]methoxy]-2,3-dimethyl-phenyl]Propanoic Acid], the EC50 in assay [1] was 231 nM.

As to `Cc1c(CCC(=O)O)cc(I)c(OCC2=C(c3ccc(I)cc3)CCCC2)c1C` [Compound 524, 3-[5-iodo-4-[[2-(4-iodophenyl)cyclohexen-1-yl]methoxy]-2,3-dimethyl-phenyl]Propanoic Acid], the EC50 in assay [1] is 1570 nM.

Turning to `O=C(O)CCc1cc(F)c(OCC2=C(c3ccc(Cl)c(F)c3)CCC(F)(F)C2)c(F)c1` [Compound 528, 3-[4-[[2-(4-chloro-3-fluoro-phenyl)-5,5-difluoro-cyclohexen-1-yl]methoxy]-3,5-difluoro-phenyl]Propanoic Acid], the concentration for a half-maximal effect (EC50) in assay [1] was 1070 nM.

For `O=C(O)CCc1cc(F)c(OCC2=C(c3cncs3)CCC(F)(F)C2)c(F)c1` [Compound 549, 3-[4-[(5,5-difluoro-2-thiazol-5-yl-cyclohexen-1-yl)methoxy]-3,5-difluoro-phenyl]Propanoic Acid], the EC50 in assay [1] was determined as 1280 nM.

`CS(=O)(=O)CCCCc1cc(CCC(=O)O)ccc1OCC1=C(c2ccc(Cl)cc2)CCC(F)(F)C1` [Compound 551, 3-[4-[[2-(4-chlorophenyl)-5,5-difluoro-cyclohexen-1-yl]methoxy]-3-(4-methylsulfonylbutyl)phenyl]Propanoic Acid]: the EC50 in assay [1] is above 5000 nM.

With `CSCCCCc1cc(CCC(=O)O)ccc1OCC1=C(c2ccc(Cl)cc2)CCC(F)(F)C1` [Compound 565, 3-[4-[[2-(4-chlorophenyl)-5,5-difluoro-cyclohexen-1-yl]methoxy]-3-(4-methylsulfanylbutyl)phenyl]Propanoic Acid], the EC50 in assay [1] was found to be 3890 nM.

As a reminder, the EC50 is the midpoint of the concentration-response curve.
